Reference: patent US10294457B2, “Maturation of hepatocyte-like cells derived from human pluripotent stem cells” (Takara Bio Europe AB, priority 2012, dated 2019)

Experiments:
[1] = system: hepatocyte-like cells derived from hES cells; assay: HNF4α TaqMan assays: HNF4α isoform expression after 9 cis-retinoic acid (Example 3); assay type: cell-based, human; settings: for expression of the adult HNF4a1-3 isoforms / expression of the fetal HNF4a4-9 isoforms: 1 or 2 μM
Text: Three different HNF4α-TaqMan assays were used for analysis of HNF4α expression: one assay detecting all 9 HNF4α isoforms, one assay detecting isoforms 1-3 (including the adult isoforms 1 and 2) and one assay detecting isoforms 4-9 (including the fetal isoforms 7 and 8). Isoforms 3, 4, 5, 6 and 9 are not expressed at all in vivo or at very low levels and can therefore be neglected.

[2] = system: hESC-derived hepatocytes
Procedure: Following the basic protocol A, differentiating hES cell derived hepatic progenitors and hepatocyte-like cells cultured on a Gelatin-based coating were treated with 1 μM 9-cis retinoic acid for 5, 24 or 48 hr exposures on days 21, 22 or 23 of the protocol (i.e. on day 7, 8 or 9 of the differentiation and maturation phase; FIG. 2 A, B, D), repeated 5 hr exposures on days 11, 16, 23, 25 and 30 of the protocol (i.e. on day 4 of the pre-hepatic phase and days 2, 9, 11 and 16 of the differentiation and maturation phase; FIG. 2 C), or long term/continuous treatment from day 14 and onwards (i.e.starting on day 1 of the differentiation and maturation phase; FIG. 2D).
Immediately after end of the RA treatment, the cell cultures are subjected to a CYP activity assay according to the following protocol: Cells are washed twice with warm Williams medium E w/o phenol red (+0.1% PEST). Then CYP activity assay, consisting of warm Williams medium E w/o phenol red (+0.1% PEST), 2 mM L-Glutamine, 25 mM HEPES, 26 μM Phenacetin (model substrate for CYP1A), 9 μM Diclofenac (model substrate for CYP2C9) and 3 μM Midazolam (model substrate for CYP3A), is added to the cells (e.g. 220 μl/24 well) and incubated for 16 hr at 37° C. Then supernatant is collected and centrifuged for 20 min at 10.000 rcf at 4° C. Subsequently, 120 μl of the supernatant is transferred into a 96 well plate which is sealed with a tight seal tape and stored at −20 or −80° C. until LC/MS-analysis of metabolite formation: Acetaminophen (Paracetamol) for CYP1A, OH-Diclofenac for CYP2C9 and OH-Midazolam for CYP3A.

[3] = system: RXR; settings: cited from earlier work; for affinity of binding to RXR: compared with 9-cis-retinoic acid (Heyman et al.)
[4] = system: hES cell derived hepatocyte-like cells; assay: qRT-PCR gene expression after RA treatment, basic protocol A (Example 5)
Procedure: Following the basic protocol A, hES cell derived hepatocyte-like cells cultured on a Gelatin-based coating were treated with 1 μM 9-cis retinoic acid for 5 hr on day 21 of the protocol (i.e. on day 7 of the differentiation and maturation phase) or 24 hr on day 22-23 of the protocol (i.e. on day 8-9 of the differentiation and maturation phase).
Cells were harvested on day 21 or 23 of the protocol (i.e. on day 7 or 9 of the differentiation and maturation phase) and gene expression was analysed using qRT-PCR, normalised to the house-keeping gene CREBBP and the results presented as relative quantification normalised to a calibrator (FIG. 3.)

[5] = system: hESC-derived hepatocytes; assay: CYP activity assay, early 5-aza-2-deoxycytidine plus late RA, Kenpaullone and matrix overlay (Example 8); assay type: cell-based, human; settings: additional effect of treatment with the DNA demethylation agent on day 2-3
Procedure: (§1) Following the basic protocols C (hESC-derived hepatocytes) or D (hiPSC-derived hepatocytes), differentiating hES and hiPS cells in the pre-endodermal phase were treated with 10 nM of the DNA demethylating agent 5-aza-2-deoxycytidine for 24 hr on day 2 to 3 of the protocol.
(§2) Later in the protocol, hPS cell derived hepatic progenitor cells and hepatocyte-like cells cultured on a Fibronectin-based coating were treated with continuous/long term treatment with 0.2 μM 9cis-RA and 0.5 μM Kenpaullone starting on day 14 of the protocol (i.e. on day 1 of the differentiation and maturation phase) and received thin Fibronectin-Collagen I-overlays on day 14 and 16 of the protocol (i.e. on day 1 and 3 of the differentiation and maturation phase) and is refreshed thereafter once a week on day 23, 30, 37 and so on (i.e. on day 9, 16, 23 and so on of the differentiation and maturation phase).
(§3) For analysing functional expression of CYP enzymes on day 36 (i.e. on day 22 of the maturation step; FIG. 10), the cell cultures are subjected to a CYP activity assay according to the following protocol: Cells are washed twice with warm Williams medium E w/o phenol red (+0.1% PEST). […]

[6] = system: hiPSC-derived hepatocytes; assay: as above; assay type: cell-based, human; settings: additional effect of treatment with the DNA demethylation agent on day 2-3
Procedure: as §1, §2, §3

[7] = system: DE derived from hPSC lines P11032, SA181 and P11012; assay: qRT-PCR of stem cell and DE markers in DE, 5-aza-2-deoxycytidine or 5-azacytidine (Example 12); assay type: cell-based, human; settings: 10 nM 5-aza-2-deoxycytidine or 1 μM 5-azacytidine on day 2-3; day 7
Procedure: Following the basic protocols C (P11032, SA181) or D (P11012), cells derived from 3 different hPSC lines were treated with either 10 nM 5-aza-2-deoxycytidine or 1 μM 5-azacytidine on day 2-3 during the pre-endodermal phase.

[8] = system: RAR; settings: Allenby et al.; Idres et al.; cited from earlier work
[9] = system: hiPSC-derived hepatocytes; assay: CYP activity assay, 9cis-RA or other RXR- and RAR-agonists (Example 15); assay type: cell-based, human; settings: instead of 0.2 μM 9cis-RA: 0.5 μM ATRA, 5 μM AM580, 0.2 μM 13cis-RA, 5 μM LGD1069, 5 μM LG100268 or 5 μM SR11237; with Kenpaullone, overlay, early 5-aza-2-deoxycytidine; day 36
Procedure: Some experimental groups were treated with 0.5 μM all trans-retinoic acid (ATRA), 5 μM AM580, 0.2 μM 13cis-RA, 5 μM LGD1069, 5 μM LG100268 or 5 μM SR11237 instead of 0.2 μM 9cis-RA.

[10] = 24-, 48 hr-exposure and continuous RA-treatment
[11] = 5 hr RA-exposure, day 23, analysed immediately after the exposure
[12] = continuous/long-term RA treatment versus 5 and 24 hr RA exposures

9-cis-retinoic acid [RA]
expression of the adult HNF4a1-3 isoforms [1, 10]: slightly increase
expression of the fetal HNF4a4-9 isoforms [1, 10]: slightly decrease
expression of the adult HNF4a1-3 isoforms [1, 11]: strongly increase
expression of the fetal HNF4a4-9 isoforms [1, 11]: increase
expression of fetal HNF4α isoform (4-9) ([1]; 5 hr exposure with 1 μM RA, 7 days later): raised over control values
expression of HNF4α isoforms 1-3 ([1]; 5 hr exposure with 1 μM RA, 7 days later, vs untreated control cells): slightly lower
expression of HNF4α isoforms 1-3 ([1]; 5 hr exposure with 1 μM RA, immediately after the exposure): increases
expression of HNF4α isoforms 4-9 ([1]; 5 hr exposure with 1 μM RA, immediately after the exposure, vs control): slightly lower
ratio of HNF4a 1-3 isoforms/4-9 isoforms ([1]; 5 hr exposures): do not increase
ratio of HNF4a 1-3 isoforms/4-9 isoforms ([1]; 24 hr and 48 hr RA-exposure and long term/continuous treatment): increase the 1-3/4-9 ratio of hESC-derived hepatocytes to levels similar as in hp hep
CYP1A activity [2]: strongest increase
CYP1A, 2C9 and 3A activities [2]: increased
CYP1A, CYP2C9 and 3A activities [2]: increase
CYP1A-, 2C9- and 3A-activity [2]: significant increase
CYP1A-activity [2]: increase
CYP3A activity [2]: strongest increase
effect on CYP1A and 2C9 activity [2]: stronger increasing effect
binding to and activation of RXR and RAR ([3]; Allenby et al., Idres et al.): binds to and activates both RXR and RAR
mRNA expression of the adult hepatic gene CYP3A4 ([4]; 5 hr RA-exposure (1 μM) on day 21, immediately after and 2 and 7 days later (day 23 and 30)): increase
decrease of expression of the fetal hepatic gene CYP3A7 ([4]; 5 hr exposure on day 21, 2 days later on day 23): strongly
decrease of expression of the fetal hepatic gene CYP3A7 ([4]; 5 hr exposure on day 21, immediately after the exposure on day 21): slightly
increase of mRNA expression of the adult hepatic gene PXR ([4]; 5 hr exposure on day 21, measured on day 21): not immediately after the 5 hr exposure
mRNA expression of the adult hepatic gene PXR ([4]; 5 hr exposure on day 21, measured on day 23): increases
mRNA expression of the adult hepatic gene PXR ([4]; 24 hr RA-exposure on day 22-23): increases
adult CYP3A4 expression ([4]; 24 hr RA-exposure on day 22-23, day 23): immediate up-regulation
expression of the fetal hepatic gene CYP3A7 ([4]; 24 hr RA-exposure on day 22-23, immediately after the exposure on day 23): strongly decreases
fetal hepatic gene α-Fetoprotein (AFP) expression [4, 12]: stronger down-regulation
mRNA expression of the adult hepatic gene CAR [4, 12]: higher increase

Nc1ncn([C@H]2C[C@H](O)[C@@H](CO)O2)c(=O)n1 [5-aza-2-deoxycytidine]
CYP2C9 activity [5]: No additional increase
CYP2C9 activity [6]: No additional increase

Nc1ncn([C@@H]2O[C@H](CO)[C@@H](O)[C@H]2O)c(=O)n1 [5-azacytidine]
Oct4 and Nanog mRNA [7]: significantly decreased
mRNA expression of the DE markers Sox17 and Cxcr4 [7]: No significant changes

CC1=C(\C=C/C(C)=C/C=C/C(C)=C/C(=O)O)C(C)(C)CCC1 [7-cis retinoic acid]
binding to RAR and RXR [8]: specifically bind RAR, but not to RXR

CC1=C(/C=C/C(C)=C/C=C\C(C)=C\C(=O)O)C(C)(C)CCC1 [11-cis-retinoic acid]
binding to RAR and RXR [8]: specifically bind RAR, but not to RXR
affinity of binding to RXR [3]: much lower affinity

CC1=C(/C=C/C(C)=C/C=C/C(C)=C\C(=O)O)C(C)(C)CCC1 [13cis RA, 13-cis-retinoic acid]
binding to RAR and RXR [8]: specifically bind RAR, but not to RXR
affinity of binding to RXR [3]: much lower affinity

CC1=C(/C=C/C(C)=C/C=C/C(C)=C/C(=O)O)C(C)(C)CCC1 [ATRA, all trans-retinoic acid]
binding to RAR and RXR [8]: specifically bind RAR, but not to RXR
CYP2C9 activity [9]: slightly smaller increase
affinity of binding to RXR [3]: much lower affinity

C=C(c1ccc(C(=O)O)cc1)c1cc2c(cc1C)C(C)(C)CCC2(C)C [LGD1069]
CYP2C9 activity [9]: slightly smaller increase
